Reference: patent US6630482B1, “CFTR channel activator compounds and pharmaceutical compositions containing same” (Centre National de la Recherche Scientifique, priority 1996, dated 2003)
Read-outs that look alike come from different tables or passages of the source. One block for each molecule: values may come before it.

Experiments:
CFTR channel [1] = biological target: T1, CFTR channel (Homo sapiens, UniProt P13569); assay: Efflux of radioactive iodide in recombinant CHO (CFTR+) cells; format: cell-based; set-up: expressed in transfected cells; host or cells: CHO-K1 cells, vector pNUT; details: for effect on the efflux of iodide / CFTR channel activation: 500 μM; for activation at 500 µM: read-out: % activation relative to control
Experimental: (§1) Several types of cells are used for this study: the intestinal lines T84, Caco-2 and HT 29. Chinese hamster ovary (CHO-K1) cells were transfected with the aid of the vector pNUT (Tabcharani et al., 1991) with or without (control cells) incorporation of normal or mutated CFTR cDNA (Chang et al., 1993). The cells are kept in this specific medium and then inoculated at a low density on to glass slides and cultured at 37° C. (5% CO2), before the patch clamping experiments. The survival medium of the cells is composed of αMEM with foetal calf serum (7%) and antibiotics: 50 IU/ml penicillin and 50 μg/ml streptomycin and methotrexate (100 μM to 200 μM).
(§2) This technique enables the kinetics of the exit of iodide to be monitored. The cells are cultured in 12-well plates with a dilution to 1/10 after passage. On day 3, the drugs to be tested are dissolved in medium B (37° C.) according to the required concentration. The wells are washed twice with 1 ml of medium B NaOH, 0.1% glucose, which is then replaced by 1 ml of charging solution for 30 min.
(§3) The operation is repeated over 10 min and the cells are then detached with 1 ml of NaOH 0.1N SDS 0.1%. The contents of each well are collected in a haemolysis tube after agitation for 25 min, and the tubes are counted for 2 min in a gamma counter.
(§4) The study relates to molecules of the benzoquinolizinium family described above. They are tested for their ability to activate the CFTR channel. Screening of molecules as openers of the CFTR channel was carried out by measuring their effect on the efflux of radioactive iodide and on the transmembrane chloride currents (Becq et al., 1993a).
2) CHO cell: efflux of radioactive iodide in
CHO cells transfected with the CFTR chain (labelled CHO-CFTR (+) on FIG. 2B) in the presence or absence of the abovementioned activators.

CFTR channel [2] = biological target: T1, CFTR channel; assay: Efflux of radioactive iodide in HT29 cells; format: cell-based; set-up: the human colon cell of the line HT29 which expresses the protein CFTR constitutively; endogenous in cells; host or cells: HT29 human colon cells; details: 500 μM
Experimental: as §1, §2, §3

CFTR channel [3] = biological target: T1, CFTR channel; assay: Efflux of radioactive iodide in Xenopus ovocyte injected with cRNA-CFTR; format: cell-based; details: Xenopus ovocyte expressing CFTR, 500 μM
CHO (CFTR−) cells = assay: Efflux of radioactive iodide in control CHO (CFTR−) cells not transfected with CFTR; format: cell-based, Chinese hamster
Excerpt: CHO cells which have not been transfected with the protein CFTR (labelled CHO-CFTR (−) on FIG. 2 B) in the presence or absence of the abovementioned activators:

intracellular cAMP = assay: Level of intracellular cAMP in recombinant CHO cell; format: cell-based, Chinese hamster; details: after 5 min
Experimental: as §4
FIG. 12: Histograms representing the levels of cAMP (measured in nmol per mg of protein) in the CHO cells which have been transfected with the CFTR gene and have not been activated (basal), or have been activated by forskoline (forskoline), or have been activated by rolipram (rolipram), or have been activated by MPB-07 (MPB-07).

CFTR channel [4] = biological target: T1, CFTR channel; assay: Patch clamping, CFTR channel activation; format: cell-based; set-up: expressed in transfected cells; host or cells: CHO-K1 cells, vector pNUT; details: rolipram
Experimental: The patch clamping experiments are carried out on confluent cells. A fragment of the glass slide (cell support) is placed in an experimental chamber (volume 600 μl or 1 ml) on the platen of an inverted microscope fitted with phase contrast illumination (Olympus IMT2). The cell-attached and inside-out configurations are used (Hamill et al., 1981). The experiments are carried out at room temperature (20-22° C.). The currents are amplified with a LIST EPC 7 amplifier (Darmstadt, Germany) (filter of 3 kHz) with a low-pass filter of 2-5 kHz (6-pole Bessel filter) and recorded with a DAT (digital audio tape) after digitalization (16 bits) at 44 kHz. The data are then transferred to an Olivetti M28PC computer. The pipettes are made from glass tubes of 1 mm diameter (Clarke Electromedical Instrument) in two or three stages with a horizontal drawer (Flaming/Brown type, model P-87. Sutter. Inst. Co. USA). The pipettes filled with a solution of 150 mM NaCI have a resistance of between 4 and 12 MΩ. The potentials are expressed as the difference between the potential of the patch electrode and that of the bath. […] The diffusion potentials are evaluated from the potential of the electrode corresponding to a zero current (when the channels are closed). […] To determine the current-voltage ratio, the ionic current amplitudes are measured form amplitude histograms. […]

[5] = efflux of iodide, recombinant CHO (CFTR+) cell, MPB and phenanthrene 500 μM

T1 sequence (P13569 whole entry): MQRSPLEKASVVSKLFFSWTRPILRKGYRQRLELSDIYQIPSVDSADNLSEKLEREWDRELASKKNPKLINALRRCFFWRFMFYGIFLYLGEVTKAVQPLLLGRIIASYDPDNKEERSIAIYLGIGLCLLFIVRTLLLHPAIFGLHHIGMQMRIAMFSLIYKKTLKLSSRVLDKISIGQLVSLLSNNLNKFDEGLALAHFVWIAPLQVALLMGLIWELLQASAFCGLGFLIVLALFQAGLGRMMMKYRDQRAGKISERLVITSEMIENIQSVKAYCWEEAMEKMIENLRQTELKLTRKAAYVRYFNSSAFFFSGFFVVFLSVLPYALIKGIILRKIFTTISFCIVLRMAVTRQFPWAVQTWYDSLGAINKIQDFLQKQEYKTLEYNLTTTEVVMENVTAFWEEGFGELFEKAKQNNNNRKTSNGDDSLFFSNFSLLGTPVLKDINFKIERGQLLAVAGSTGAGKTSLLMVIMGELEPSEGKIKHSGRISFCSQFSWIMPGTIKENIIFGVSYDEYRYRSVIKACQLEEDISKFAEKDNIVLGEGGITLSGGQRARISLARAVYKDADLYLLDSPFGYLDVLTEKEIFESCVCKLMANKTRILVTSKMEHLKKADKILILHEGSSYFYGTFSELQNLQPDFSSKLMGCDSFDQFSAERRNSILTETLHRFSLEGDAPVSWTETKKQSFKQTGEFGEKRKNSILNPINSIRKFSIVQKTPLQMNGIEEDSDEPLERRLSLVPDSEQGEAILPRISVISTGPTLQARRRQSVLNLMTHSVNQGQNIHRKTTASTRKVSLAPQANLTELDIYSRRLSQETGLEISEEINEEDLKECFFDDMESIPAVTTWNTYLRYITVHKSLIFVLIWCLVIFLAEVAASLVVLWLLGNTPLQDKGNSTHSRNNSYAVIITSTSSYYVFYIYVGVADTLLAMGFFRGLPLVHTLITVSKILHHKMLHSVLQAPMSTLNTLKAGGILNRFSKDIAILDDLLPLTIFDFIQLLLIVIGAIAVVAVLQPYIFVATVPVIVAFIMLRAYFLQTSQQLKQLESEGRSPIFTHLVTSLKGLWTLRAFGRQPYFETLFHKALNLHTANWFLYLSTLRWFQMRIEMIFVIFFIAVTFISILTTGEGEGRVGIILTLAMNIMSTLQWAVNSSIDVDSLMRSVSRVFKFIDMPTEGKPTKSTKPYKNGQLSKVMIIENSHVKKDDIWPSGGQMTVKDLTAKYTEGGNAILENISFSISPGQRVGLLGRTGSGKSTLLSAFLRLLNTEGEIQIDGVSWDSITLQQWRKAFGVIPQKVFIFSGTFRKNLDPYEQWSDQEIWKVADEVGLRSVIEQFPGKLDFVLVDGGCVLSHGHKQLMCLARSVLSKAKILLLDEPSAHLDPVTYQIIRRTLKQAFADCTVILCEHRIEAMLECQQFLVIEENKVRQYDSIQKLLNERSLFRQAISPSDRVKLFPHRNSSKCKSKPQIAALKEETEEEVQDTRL

Molecule: Nc1ncnc2c1nc(Sc1ccc(Cl)cc1)n2[C@@H]1O[C@@H]2COP(=O)(O)O[C@H]2[C@H]1O [c-cpt-AMP, cyclic 8-(4-chlorophenylthio)-adenosine 3′,5′-monophosphate]
- effect on the basal level of the efflux of iodide (CHO (CFTR−) cells; 500 μM): has no effect

Molecule: Nc1cc2ccccc2c2ccccc12 [MPB-24]
- activation at 500 µM (CFTR channel [1]): 18%

Molecule: CNc1ccc2oc(C[C@H]3O[C@@]4(CC[C@H]3C)O[C@H]([C@H](C)C(=O)c3ccc[nH]3)[C@H](C)C[C@H]4C)nc2c1C(=O)O [Compound A23187, reference compound]
- effect on the efflux of iodide (CFTR channel [1]; CHO (CFTR+) cells, 10 μM): has no effect
- effect on the basal level of the efflux of iodide (CHO (CFTR−) cells; 10 μM): do not significantly modify the basal level of the efflux of iodide

Molecule: COc1ccc(C2CNC(=O)C2)cc1OC1CCCC1 (centres unmarked) [rolipram]
- effect as a CFTR activator measured by the flow of iodide (CFTR channel [1]; rolipram): has no effect as a CFTR activator
- effect as a CFTR activator measured by patch clamping (CFTR channel [4]): has no effect as a CFTR activator
- level of cell cAMP (intracellular cAMP; 10 μM): The same level of cAMP is reached in the presence of the compounds MPB-07 and rolipram

Molecule: c1ccc2c(c1)ccc1ccccc12 [phenanthrene, reference compound]
- effect on the efflux of iodide / CFTR channel activation (CFTR channel [1]; CHO (CFTR+) cells): does not activate the CFTR channel
- activation at 500 µM (CFTR channel [1]; [5]): < 5%

Molecule: C=C[C@@]1(C)CC(=O)[C@]2(O)[C@@]3(C)[C@@H](O)CCC(C)(C)[C@@H]3[C@H](O)[C@H](OC(C)=O)[C@@]2(C)O1 [forskoline]
- % activation relative to control (CFTR channel [1]; efflux of iodide, recombinant CHO (CFTR+) cell, forskoline 5 μM): 109%
- effect on the basal level of the efflux of iodide (CHO (CFTR−) cells; 5 μM): do not significantly modify the basal level of the efflux of iodide
- effect on cAMP, multiplication factor (intracellular cAMP; 5 μM): about 4

Molecule: Oc1cc2ccccc2c2ccccc12 [MPB-25]
- activation at 500 µM (CFTR channel [1]): 25%

More lines, main results first:

- % activation relative to control (CFTR channel [1]; [5]): 30%
Molecule: Nc1cc2cccc[n+]2c2ccccc12 [MPB-26, 6-Aminobenzo[c]quinolizium]

- effect on the efflux of iodide (CFTR channel [3]): stimulates the efflux of iodide
- activation at 500 µM (CFTR channel [1]; [5]): 110%
Molecule: Oc1cc2cccc[n+]2c2c(Cl)cccc12.[Cl-] [MPB-07, 6-Hydroxy, 10-Chlorobenzo[c]quinolizinium Chloride]
- effect on the efflux of iodide (CFTR channel [2]): triggers an efflux of iodide, with a similar rate and amplitude, which is increased with respect to the basal level
- effect on the efflux of iodide / CFTR channel activation (CFTR channel [1]; CHO (CFTR+) cells): comparable in intensity and rate to that induced by forskoline (5 μM)
- effect on the basal level of the efflux of iodide (CHO (CFTR−) cells; 500 μM): do not significantly modify the basal level of the efflux of iodide
- level of cell cAMP (intracellular cAMP; 500 μM): The same level of cAMP is reached in the presence of the compounds MPB-07 and rolipram

- activation at 500 µM (CFTR channel [1]; [5]): 95%
Molecule: Oc1cc2cccc[n+]2c2cccc(Cl)c12 [MPB-27, 6-Hydroxy, 7-Chlorobenzo[c]quinolizinium Chloride]

- % activation relative to control (CFTR channel [1]; [5]): 53%
Molecule: 6-Hydroxbenzo[c]quinolizinium Bromide [MPB-06]

- activation at 500 µM (CFTR channel [1]; [5]): 18%
Molecule: Nc1cc2cccc[n+]2c2cc(Cl)ccc12 [MPB-03, 6-Amino, 9-Chlorobenzo[c]quinolizinium Chloride]

- activation at 500 µM (CFTR channel [1]; [5]): 22%
Molecule: Oc1cc2cccc[n+]2c2cc(Cl)ccc12 [MPB-08, 6-Hydroxy, 9-Chlorobenzo[c]quinolizinium Chloride]

- activation at 500 µM (CFTR channel [1]; [5]): 20%
Molecule: Oc1cc2cccc[n+]2c2ccccc12 [MPB-05, 6-Hydroxybenzo[c]quinolizinium Chloride]

- activation at 500 µM (CFTR channel [1]; [5]): 11%
Molecule: Nc1cc2cccc[n+]2c2cccc(Cl)c12 [MPB-04, 6-Amino, 7-Chlorobenzo[c]quinolizinium Chloride]
